In patent US6818391B2, “Glutamate transporters” (The Regents of the University of California, priority 2000, dated 2004):
Entries after “also recorded” stand apart in the source; their conditions may differ.

Tests used:
synaptic vesicles = settings: read-out: Km of vesicular glutamate transport; cited from earlier work
BNPI (VGLUT1) [1] = molecular target: T1, BNPI (VGLUT1) (Rattus norvegicus, UniProt Q62634); assay: acridine orange fluorescence quenching (vesicle acidification) of BNPI-expressing membranes; format: biochemical; settings: for acidification of BNPI-expressing versus control membranes: 90 mM chloride (KCl)
T1 construct: expressed in transfected cells; light membranes prepared from them
T1 sequence (Q62634 1-560): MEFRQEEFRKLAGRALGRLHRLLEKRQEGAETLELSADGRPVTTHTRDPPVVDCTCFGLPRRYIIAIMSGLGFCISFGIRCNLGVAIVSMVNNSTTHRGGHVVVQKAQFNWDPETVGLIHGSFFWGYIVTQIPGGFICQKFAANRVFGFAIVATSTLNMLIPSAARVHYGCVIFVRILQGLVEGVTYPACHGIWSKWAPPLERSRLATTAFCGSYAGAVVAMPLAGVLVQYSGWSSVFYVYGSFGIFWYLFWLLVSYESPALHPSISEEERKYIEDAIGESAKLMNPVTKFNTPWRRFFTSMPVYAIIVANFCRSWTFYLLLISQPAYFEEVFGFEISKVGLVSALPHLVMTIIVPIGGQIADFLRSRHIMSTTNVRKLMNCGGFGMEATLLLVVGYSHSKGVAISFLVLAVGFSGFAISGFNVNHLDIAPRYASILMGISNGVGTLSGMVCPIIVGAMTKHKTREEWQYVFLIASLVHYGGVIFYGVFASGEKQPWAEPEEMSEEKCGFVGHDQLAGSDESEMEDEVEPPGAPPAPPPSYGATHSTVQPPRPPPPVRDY
Protocol: (§1) Native synaptic vesicles acidify during glutamate uptake (Maycox et al. (1988) J. Biol. Chem., 263: 15423). Glutamate presumably serves as a counterion for protons and dissipates ΔΨ, enabling the vacuolar H+-ATPase to generate a larger ΔpH, but cotransport of H+ with glutamate remains an alternative possibility. To determine whether acidification also accompanies glutamate transport by BNPI, we used the quenching of acridine orange fluorescence to measure vesicle pH. Membranes (200 μg of protein) were diluted into 2 ml of 0.3 M sucrose and 10 mM tris-Mops (pH 7.4) containing 4 mM MgSO4 and 5 μM acridine orange and incubated at 37° C. with continuous stirring. Fluorescence was monitored with a Hitachi F4500 spectrofluorimeter at an excitation wavelength of 492 nm and emission of 530 nm. Separate measurements were made with at least three different membrane preparations for wild-type and transfected cells; representative tracings are shown in FIG. 5.

[2] = test system: untransfected PC12 cell membranes; assay: background 3H-glutamate uptake by membranes from untransfected PC12 cells; format: biochemical, rat; settings: uptake at 5 min
Protocol: To initiate the transport reaction, we added 10 μl of membranes to 190 μl of SH buffer containing 4 mM KCl, 4 mM MgSO4, 4 mM ATP, and 50 μM 3H-glutamate, with other additions noted in the text and figure legends. […] Background uptake was determined using membranes prepared from untransfected cells that were incubated for the same amount of time at the same temperature. Transport measurements were performed in duplicate with at least two different preparations of membranes. The Km was calculated by averaging the results of two separate determinations.

[3] = test system: untransfected PC12 cell membranes; assay: acridine orange fluorescence quenching of untransfected cell membranes; format: biochemical, rat; settings: 10 mM glutamate
Protocol: as §1

BNPI (VGLUT1) [4] = molecular target: T1, BNPI (VGLUT1); assay: 3H-glutamate uptake by membranes from PC12 cells expressing BNPI; format: biochemical; settings: for inhibition of 3H-glutamate uptake by membranes expressing BNPI: 10 mM, uptake at 5 min
Excerpt: Rather, the type I transporter NaPi-1 transports organic anions, including phenol red and penicillin G, with substantially higher apparent affinity than Pi (Busch et al. (1996) Proc. Natl. Acad. Sci., USA, 93: 5347). Human genetic studies have shown that mutations in another protein closely related to BNPI and NaPi-1 account for disorders of sialic acid storage (Verheijen et al. (1999) Nature Genet. 23: 462). In these conditions, sialic acid accumulates in lysosomes because of a defect in proton-driven export (Renlund et al. (1986) Science 232: 759; Mancini et al. (1989) J. Biol. Chem. 264: 15247; Tietze et al. (1989) J. Biol. Chem. 264: 15316; Mancini et al. (1992) Proc. Natl. Acad. Sci., USA, 89: 6609). […] To determine whether BNPI mediates the transport of glutamate into synaptic vesicles, we transfected the rat BNPI cDNA into rat pheochromocytoma PC12 cells, which lack detectable endogenous BNPI protein. The rat BNPI cDNA was stably expressed in PC12 cells, and immunofluorescence for BNPI was used to identify the most highly expressing cell clones. Membranes were prepared by homogenizing the washed cells in SH buffer [0.32 M sucrose and 10 mM Hepes-KOH (pH 7.4)] containing protease inhibitors and by pelleting the nuclei at 1000 g for 5 min and the heavier membranes at 27,000 g for 35 min. The supernatant containing lighter membranes was then pelleted at 210,000 g for 1 hour and resuspended in SH buffer with protease inhibitors at a final concentration of ˜10 μg protein/μl.
We then prepared a population of light membranes, including synaptic-like microvesicles, from the transfected and untransfected cells (McIntire et al. (1997) Nature 389: 870) and tested their ability to accumulate 3H-glutamate in the presence of 4 mM chloride and ATP, conditions that optimize glutamate accumulation by native synaptic vesicles (Maycox et al. (1988) J. Biol. Chem., 263: 15423; Carlson et al. […] J. Biol. Chem. 264: 7369). To initiate the transport reaction, we added 10 μl of membranes to 190 μl of SH buffer containing 4 mM KCl, 4 mM MgSO4, 4 mM ATP, and 50 μM 3H-glutamate, with other additions noted in the text and figure legends. The reaction mixture was incubated at 29° C. for varying times, and the uptake was terminated by rapid filtration, followed by immediate washes with 6 ml of cold 0.155 M potassium tartrate and 10 mM Hepes (pH 7.4). Background uptake was determined using membranes prepared from untransfected cells that were incubated for the same amount of time at the same temperature. Transport measurements were performed in duplicate with at least two different preparations of membranes. The Km was calculated by averaging the results of two separate determinations.

SMILES	Km (synaptic vesicles)	acidification (lumenal pH) of membranes expressing BNPI (BNPI (VGLUT1) [1]; 10 mM glutamate, with ATP and 4 mM KCl)	effect on rate of chloride-dependent acidification of BNPI membranes (BNPI (VGLUT1) [1]; 10 mM, KCl 20, 50, 140 mM)	effect on acidification of BNPI-expressing membranes by chloride (BNPI (VGLUT1) [1]; 10 mM, listed as Glutamate)	effect on acidification of BNPI-expressing membranes by chloride (BNPI (VGLUT1) [1]; 10 mM, listed as glutamate)	effect on background glutamate uptake by untransfected cell membranes [2]	effect on acidification produced by chloride in nontransfected cell membranes [3]	inhibition of 3H-glutamate uptake by membranes expressing BNPI (BNPI (VGLUT1) [4])	inhibition of 3H-glutamate uptake by membranes expressing BNPI (BNPI (VGLUT1) [4]; listed as L-glutamate)	Km (BNPI (VGLUT1) [4]; initial rate at 1 min, Lineweaver-Burke, untransfected background subtracted, read-out: Km of glutamate transport by BNPI)	acidification of BNPI-expressing versus control membranes (BNPI (VGLUT1) [1])	acidification of BNPI-expressing versus control membranes (BNPI (VGLUT1) [1]; listed as KCl)	3H-glutamate uptake by BNPI at non-optimal chloride (BNPI (VGLUT1) [4]; 0 and 25 mM chloride)
N[C@@H](CCC(=O)O)C(=O)O [L-Glutamate]	~1000 µM	reduced the lumenal pH; also recorded: acidifies membranes expressing BNPI	reduces the rate of acidification	blocks this chloride conductance; also recorded: reduces the acidification	decreased the acidification produced by chloride	had little effect	had no effect	markedly inhibits	inhibited the uptake	~2000 µM	–	–	–
Cl [chloride]	–	–	–	–	–	–	–	–	–	–	produces more acidification	considerably greater	much less activity detected
